# Assay results: US7569587B2, “Antibacterial mutilins” (Nabriva Therapeutics AG, priority 2000, dated 2009)
# System: Staphylococcus
# Test: Systemic infections of mice (Handbook of animal models of infection)
# Assay type: in vivo
# Settings: parenteral or oral administration, Probit analysis
# Description: The active compounds of the present invention show e.g. activity in systemic infections of mice determined according to the Handbook of animal models of infection.
# ED50=Effective dosage in mg/kg body weight per application by which 50% of the treated animals are protected from death; calculated by Probit analysis (n=8 animals/group).
row,SMILES,ED50 (dosage by which 50% of the treated animals are protected from death)
1,C=CC1(C)CC(OC(=O)CS[C@H]2CCCN(C(=O)[C@H](N)C(C)C)C2)C2(C)C(C)CCC3(CCC(=O)C32)C(C)C1O (stereo partly drawn) [Example 1],~7.0 mg/kg body weight
2,"C=CC1(C)CC(OC(=O)CSC2CCN(C(=O)[C@H](N)C(C)C)C2)C2(C)C(C)CCC3(CCC(=O)C32)C(C)C1O (stereo partly drawn) [Example 5, 14-O—[(N-(3-methyl-2(R)-amino-butyryl)-pyrrolidine-3-yl)-sulfanylacetyl]-mutilin]",about 11.0 mg/kg body weight
3,"C=CC1(C)CC(OC(=O)CSC2CCN(C(=O)[C@H](N)Cc3c[nH]cn3)C2)C2(C)C(C)CCC3(CCC(=O)C32)C(C)C1O (stereo partly drawn) [Example 6, 4-O—[(N—(R)-histidinyl-pyrrolidin-3-yl)sulfanylacetyl]mutilin]",about 11.0 mg/kg body weight
